Results as given in patent US20120277265A1, “NOVEL POLYQUINOLINE DERIVATIVES AND THE THERAPEUTIC USE THEREOF” (CENTRE NATIONAL DE LA RECHERCHE SCIENTIFIQUE (C.N.R.S.), priority 2005, published 2012).

Legend:
[1] = UV-visible spectrophotometric titration with ZnCl2 (metal/ligand stoichiometry); assay type: binding; settings: 15 μM ligand; Tris-HCl buffer pH 7.4/organic solvent, per ligand as in Table 3 column Solvent
Procedure: (§1) An organic solvent (CH3OH, dioxane or DMSO) was added in order to achieve good solubility of the ligands and metal complexes in the concentrations used in these experiments. Exact proportions of the organic solvent/buffer mixture are specified for each UV-visible characterisation of the different ligands or metal complexes.
(§2) Aliquot portions of concentrated CuCl2 or ZnCl2 solutions (M) are added to a 15 μM ligand solution so as to induce only negligible variations in volume. After each addition, changes in absorption spectra are observed immediately and are consistent between two additions, which corresponds to a rapid complexing process. The exact absorption values relating to each ligand and the copper(II) or zinc(II) complexes thereof are detailed hereinafter in the Experimental part (in the Synthesis part for ligands and hereinafter for the metal complexes).
(§3) The stoichiometry of the different ligands (L) for Cu(II) or ZN(II) have therefore been determined spectrophotometrically by metal ion titration. In this example, for an M/L ratio increasing from 0 to 1, π→π* with transition, centred at 251 nm for the free ligand, is shifted to a lower energy with a concomitant appearance of an absorption band in the visible region of the spectrum (λmax to 383 nm), which is probably the result of an MLCT transition. For greater M/L ratios, no additional change in the UV-visible absorption spectra is observed.

[2] = UV-visible spectrophotometric titration with CuCl2 (metal/ligand stoichiometry); assay type: binding; settings: 15 μM ligand; Tris-HCl buffer pH 7.4/organic solvent, per ligand as in Table 3 column Solvent
Procedure: as §1, §2, §3

[3] = Competition reaction between ligand (Ls), ZnCl2 and competing chelator (Lc), UV-visible; affinity constants; assay type: binding; settings: Ls/ZnCl2/Lc 1/1/1 at 15 μM; solvent per ligand as in Table 3
Procedure: An organic solvent (CH3OH, dioxane or DMSO) was added in order to achieve good solubility of all the ligands and metal complexes in the concentrations used in these experiments.
As the concentration [MLs]=x % of C is measured on the UV-visible spectra, the concentrations [Ls]=(1−x) % of C, [MLc]=(1−x) % of C and [Lc]=x % of C can be deduced therefrom and:
In these conditions, [MLs]=[MLc]; [MLs]+[Lc]=Y, y≧50 and:
When log Ks 6, these equations are not used since the percentages of metal ion which is free in the solution or chelated by the solvent or the buffer are not negligible.

[4] = molecular target: T1, Aβ1-42 (Homo sapiens, UniProt P05067); experiment: Inhibition of the precipitation of Aβ1-42 by the addition of ligand (Micro BCA assay of soluble/aggregated peptide); assay type: biochemical; settings: Aβ1-42 5 μM, pH 7.4; for CuCl2 % soluble Aβ: 20 μM CuCl2, 1 h 37° C. then 1 h with 200 μM ligand; for FeCl3 % soluble Aβ: 20 μM FeCl3, 1 h 37° C. then 1 h with 200 μM ligand; for ZnCl2 % soluble Aβ: 20 μM ZnCl2, 1 h 37° C. then 1 h with 200 μM ligand; for without metal % soluble Aβ: no metal salt, 1 h 37° C. then 1 h with 200 μM ligand
T1 construct: The β-amyloid peptide Aβ1-42 (Aβ1-42) was synthesised, purified (to a purity greater than 95%); made in house; host or cells: chemical peptide synthesis (no expression host)
T1 sequence (P05067 672-713): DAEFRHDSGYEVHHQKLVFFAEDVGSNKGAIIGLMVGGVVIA
Procedure: After a further hour of incubation, the reaction mixture is centrifuged.
Before use, the water [of Milli-Q Millipore quality] and all buffer solutions were treated on Chelex-100 resin (Biorad) (5 mg/ml) and filtered through 0.2 μm filters (Whatman) to remove potential traces of metal ions or particles.
Working solutions of the peptide were prepared by solubilising 1 mg of lyophilised peptide in 500 μl of water and 500 μl of an aqueous NaOH solution pH=12.0, while stirring in a Thermomixer Comfort (Eppendorf). The peptide preparations are subsequently centrifuged for 10 minutes at 9,000 rpm and the supernatant is used as an “Aβ stock” solution. The concentration of peptide in the “Aβ stock” is determined immediately by colorimetric assay using a Micro BCA Protein Assays kit (Pierce) from standard ranges produced using known amounts of bovine serum albumin (BSA) then the Aβ1-42 peptide solution is aliquoted and frozen rapidly in liquid nitrogen prior to being stored at −20° C. until being used.
Salts are generated by adding one hydrochloric acid equivalent per nitrogen group equivalent of the ligand dissolved in DMSO. After evaporation of the solvent, these salts are dissolved at the desired concentration with DMSO and kept at −20° C. until they are used.
The protocol was established from works by: C. S. Atwood et al., J. Neurochem. […] The final concentrations are given. 500 μl of Aβ1-42 (5 μM is set to aggregate in 20 mM Tris-HCl buffer containing 150 mM NaCl (pH=7.4) for 1 hour at 37° C. while stirring at 1,400 rpm in the absence or presence of metal ions: CuCl2, ZnCl2 or FeCl3 (20 μM). Then 50 pi of ligand to be tested (200 μM) dissolved in DMSO are added and the samples are incubated for 1 further hour at 37° C. while stirring at 1,400 rpm. The samples without ligand also receive 50 μl of DMSO. The samples (final volume=550 μ) are subsequently centrifuged for 20 min at 9,000 rpm, and 500 μl of supernatant are removed. The tube containing the precipitation pellet then receives 450 μl of assay buffer/DMSO mixture (91/9, v/v). […] Quantification is carried out on the basis of standard BSA ranges. The amounts of Aβ1-42 actually contained in the pellet and the supernatant are obtained after a correction due to the presence of a residual portion of supernatant in the pellet-containing fraction.
For the control experiments with derivatives comprising a single quinoline residue, […] of ligand were added because complexes of type L2Cu are conventionally used in these cases.

[5] = Determination of log D7.4 (1-octanol / Tris-HCl buffer); assay type: physicochemical; settings: 1-octanol / 20 mM Tris-HCl buffer containing 150 mM NaCl (pH = 7.4) (1/1, v/v)
Procedure: The ligand (2.0 mg) is dissolved in 2 ml of 1-octanol then 2 ml of 20 mM Tris-HCl buffer, pH=7.4 containing 150 mM NaCl are added. After mixing in a vortex for 3 min at ambient temperature, followed by centrifugation for 5 min at 9,000 rpm, the concentration of the ligand in each phase is determined by UV-visible spectrophotometry. The 1-octanol fractions are thus redivided until reproducible values of coefficient of division of obtained. This coefficient is expressed as the decimal logarithm of [(the concentration of ligand contained in the 1-octanol phase)/(the concentration of ligand contained in the buffered aqueous phase)]=log D7.4. Measurements were taken three times.

[6] = Competition reaction between ligand (Ls), CuCl2 and competing chelator (Lc), UV-visible; affinity constants; settings: Ls/CuCl2/Lc 1/1/1 at 15 μM; solvent per ligand as in Table 3
Procedure: An organic solvent (CH3OH, dioxane or DMSO) was added in order to achieve good solubility of all the ligands and metal complexes in the concentrations used in these experiments. Monitoring has shown that all the ligands and metal complexes examined yield results corresponding to the Beer-Lambert Law in the experimental conditions used.
Lc competing chelators were selected to provide a range of stability constants for the metal ion M presenting intervals of approximately one or two log units, as well as to make it possible for each competition experiment to quantify one of the Ls, MLs, Lcc or MLc species with a UV-vis spectrum wavelength without contaminating the three other species (FIG. 7). […] As the concentration [MLs]=x % of C is measured on the UV-visible spectra, the concentrations [Ls]=(1−x) % of C, [MLc]=(1−x) % of C and [Lc]=x % of C can be deduced therefrom and:

[7] = molecular target: T2, copper complexes of Aβ1-42 peptide (Homo sapiens, UniProt P05067); experiment: Hydrogen peroxide produced by Aβ1-42 in the presence of CuCl2, ascorbate, air and ligand (Amplex Red H2O2/HRP); assay type: biochemical; settings: CuCl2 0.4 μM, ascorbate 10 μM, air
T2 construct: The β-amyloid peptide Aβ1-42 (Aβ1-42) was synthesised, purified (to a purity greater than 95%); made in house; host or cells: chemical peptide synthesis (no expression host)
T2 sequence (P05067 672-713 limits assumed, one chain of several): as the sequence (P05067 672-713) above
Procedure: (§4) FIG. 11: Variation in H2O2 production by copper complexes of Aβ1-42 peptide as a function of the Cu(II)/Aβ stoichiometry. Experiments are carried out for 5 minutes in a sodium phosphate buffer (pH=7.4) in the presence 0.4 μM CuCl2, 10 μM ascorbate and air with or without 0.4 μM of 3 or 7. The H2O2 released is quantified by means of an Amplex-Red H2O2/HRP Assay kit.
(§5) The final concentrations are given. The reactions were carried out in the dark in mM sodium phosphate buffer (pH=7.4). Aβ1-42 (0.2 μM) and CuCl2 (0.4 μM) were pre-incubated for 1 hour at 37° C. while stirring at 1,400 rpm in 375 μl of buffer. Then 2 μl of a solution of ligand to be investigated (0.2; 0.4 or 0.8 μM) in DMSO were added. After incubation for a further hour, 2 μl of an aqueous sodium ascorbate solution (10 μM) were added and incubation was continued for 5 min while stirring. The amount of H2O2 produced is then quantified using an Amplex Red H2O2/HRP Assay Kit (Molecular Probes) while adding a volume of assay reagent to the samples, then incubating them for 1 hour at 37° C. while stirring at 500 rpm. […] Quantification is carried out on the basis of standard curves obtained with known amounts of H2O2.
(§6) The figures in the tables correspond to the amount of H2O2 (expressed in nanomoles) added using an Amplex Red H2O2/HRP Assay kit.

[8] = as above; assay type: biochemical; settings: CuCl2 0.4 μM, ascorbate 10 μM, air
Procedure: as §4, §5, §6

[9] = test system: Salmonella tiphimurium TA100; experiment: AMES test, TA100; settings: value per plate
Source text: (§7) AMES test: The method is adapted from D. M. Maron and B. N. Ames, Mutat.
(§8) The test involves evaluating the potential of the tested molecules to induce mutation which is reverse to the histidine locus of these lines. These two lines were provided by Dr. Bruce N. Ames (University of California, Berkeley, USA). They are resistant to Ampicillin and sensitive to Tetracycline. They are not mutant toward rfa, UvγV and UvγA. The line TA98 (his D3052) contains a mutation of reading phase (GC) whereas the line TA100 (his G46) contains a substitution of base pair (GC).
(§9) The compounds to be tested were dissolved in 100% of DMSO (the solvent) and diluted logarithmically (by a factor of 10) so as to obtain 4 test concentrations of 30,000; 3,000; 300 and 30 μg/ml. Each series of 0.1 ml of stock solution to be tested, 0.1 ml of test line and of culture medium with or without 0.5 ml of enzymatic homogenate (S9) of rat liver microsome were mixed with 2 ml of molten agarose (containing 0.5 mM of histidine and 0.5 mM of biotin). This mixture was placed on the surface of a plate of minimal agarose glucose medium (30 ml for each Petri dish) so as to obtain final concentrations of compound to be tested of 3,000; 300; 30 and 3 μγ/plate. The plates were then incubated at 37° C. for 48 hours. […] The revertant colonies of the test lines were counted using a colony counter (Sigma). […] A compound inducing a number of colonies <50% of cells obtained for the solvent alone was deemed to be toxic for the bacteria tested. All the experiments were carried out in triplicate.

[10] = test system: Salmonella tiphimurium TA98; experiment: AMES test, TA98; settings: value per plate
Source text: as §7, §8, §9

Row | Compound | Complex observed by titration with Zn^II (observed L/Zn(II) stoichiometry) [1] | Complex observed by titration with Cu^II (observed L/Cu(II) stoichiometry) [2] | percentage of ZnLs species at equilibrium, competing ligand EDTA [3] [%] | CuCl2 % soluble Aβ [4] [%] | FeCl3 % soluble Aβ [4] [%] | ZnCl2 % soluble Aβ [4] [%] | without metal % soluble Aβ [4] [%] | logD at 3 min [5] | percentage of the CuLs species at equilibrium, competing ligand EDTA [6] [%] | amount of H2O2, 0.2 μM Aβ1-42 Cu/Aβ = 2 ([7]; ligand 1 eq/Cu(II) (0.4 μM)) [nmol] | amount of H2O2, without Aβ1-42 ([8]; ligand 1 eq/Cu(II) (0.4 μM)) [nmol] | amount of H2O2, 0.5 μM Aβ1-42 Cu/Aβ = 0.75 ([7]; ligand 1 eq/Cu(II) (0.4 μM)) [nmol] | percentage of the CuLs species at equilibrium, competing ligand EDDA [6] [%] | TA100 Cytotoxicity ([9]; Addition of S9: no) [µg] | TA100 Cytotoxicity ([9]; Addition of S9: yes) [µg] | amount of H2O2, without Aβ1-42 ([8]; ligand 2 eq/Cu(II)) [nmol] | amount of H2O2, 0.2 μM Aβ1-42 Cu/Aβ = 2 ([7]; ligand 2 eq/Cu(II)) [nmol] | amount of H2O2, 0.5 μM Aβ1-42 Cu/Aβ = 0.75 ([7]; ligand 2 eq/Cu(II)) [nmol] | TA98 Cytotoxicity ([10]; Addition of S9: no) [µg] | TA98 Cytotoxicity ([10]; Addition of S9: yes) [µg]
1 | Oc1cccc2ccc(CCCCc3ccc4cccc(O)c4n3)nc12 [Compound 10, 2,2′-(1,4-Butanediyl)-bis(8-hydroxyquinoline)] | LZn^II(1/1) | LCu^II(1/1) | 45 | 42 | 43 | 43 | 52 | 3.8 ± 0.1 | 45 | – | – | – | – | – | – | – | – | – | – | –
2 | COc1ccc2ccc(CCc3ccc4ccc(OC)c(O)c4n3)nc2c1O [Compound 17, 2,2′-(1,2-ethanediyl)-bis[7-(methyloxy)-8-quinolinol]] | LZn^II(1/1) | LCu^II(1/1) | 35 | 38 ± 4 | 38 | 42 ± 4 | 63 ± 3 | 3.5 ± 0.1 | 55 | 0.69 | – | – | – | – | – | – | – | – | – | –
3 | c1cnc2c(NCCCNc3cccc4cccnc34)cccc2c1 [Compound 13, N,N′-di-8-quinolinyl-1,3-propanediamine] | – | LCu^II(1/1) | – | 55 ± 3 | 66 | 57 | 71 ± 2 | 2.7 ± 0.1 | 25 | 2.10 | 0.89 | 0.70 | 65 | – | – | – | – | – | – | –
4 | Oc1c(I)cc(Cl)c2cccnc12 [Clioquinol, reference compound] | – | – | – | 55 ± 3 | 51 | 37 | 63 | 3.8 ± 0.1 | – | 0.89 ± 0.08 | 2.07 | 0.64 | – | 30 | 30 | 0.54 | 0.78 ± 0.06 | 0.57 | 300 | 300
5 | CCCCN(c1ccc2cccc(N)c2n1)c1ccc2cccc(N)c2n1 [Compound 23, N-butyl-2,2′-imino-bis(8-quinolineamine)] | – | LCu^II(1/1) | – | 60 ± 4 | 62 | 58 ± 4 | 73 | 2.5 ± 0.1 | 30 | 0.69 | 0.65 | 0.49 | – | – | – | – | – | – | – | –
